This is an account of results in patent US20210267960A1, “METHODS OF TREATMENT OF INFLAMMATORY CYTOKINE-RELATED ARTHRITIC DISORDERS” (Bridge Pharma Inc., priority 2020, published 2021).

Series [1] concerns human white blood cells. As to the kind of experiment: Induced cytokine release from stimulated human white blood cells (overall conclusion). It counts as cell-based. Particulars: PHA 5 μg/ml, 16 hours; conclusion in words. As for the experimental part:
The objective of this study was to assess the ability of norketotifen to inhibit induced cytokine release from stimulated human white blood cells.
The study was conducted in two phases. The first phase included optimization of the test methodology and including dose-range finding studies, using buffy coats from 3 human donors, stimulated with phytohemagglutinin (PHA). Following optimization of the test conditions, a final protocol was issued. In the following Main Study, white blood cells (buffy coats) from 5 healthy human donors were stimulated with PHA, 5 μg/ml. The concentrations of the test article and the duration of exposure were optimized to obtain acceptable dose-response ratios. Thus, the inhibitory effects of three concentrations of NK and one concentration of ketotifen were evaluated in the Main Study. The buffy coats containing white blood cells from 5 male human donors were resuspended in assay media and were pre-incubated for 30 min with either vehicle/saline, ketotifen 10 μM ([…]) or norketotifen 1 μM and 10 μM and 100 μM, corresponding to 0.411 μg/ml, 4.11 μg/ml and 41.1 μg/ml, resp. Following these preincubations, the white blood cells were stimulated for 16 hours with PHA, 5 μg/ml. The cell system supernatants were then harvested and stored frozen pending analyses. […]

Series [2] is described as follows: Preclinical studies of immune-suppressive effects. Particulars: compared with the steroids. An excerpt:
Norketotifen is thus particularly useful in the treatment of diseases treatable with the TNFα blocking agents adalimumab (Humira®), infliximab (Remicade®, Inflectra®), certolizumab pegol (Cimzia®), golimumab (Simponi®) and enteracept (Enbrel®); the IL-4 and IL-13 inhibitors dupilumab (Dupixent®), pascolizumab, pitrakinra, and lebrikizumab, anrukinzumab, and tralokinumab; and the IL-5 inhibitors mepolizumab, reslizumab and benralizumab. Advantageously, norketotifen is a small molecule and oral and parenteral administration of norketotifen can provide for convenience and significant cost savings.

Series [3] deals with mouse. To be noted: mouse model of sedation; U.S. Pat. Nos. 7,226,934 and 7,557,128; cited from earlier work.

`O=C1Cc2ccccc2C(=C2CCNCC2)c2ccsc21` (racemic) [Norketotifen, norketotifen]: the “Inhibition of the release of cytokines from human white blood cells” value in series [1] is “potently and dose-dependently inhibited”. The Adverse immune-suppressive effects entry in series [2] is given as “free from the adverse immune-suppressive effects”.
Take `CN1CCC(=C2c3ccccc3CC(=O)c3sccc32)CC1` [Ketotifen, ketotifen, reference compound]: the “Inhibition of the release of cytokines from human white blood cells” value in series [1] is given as “No statistically significant inhibition”.
Turning to `O=C(O)/C=C/C(=O)O.O=C1Cc2ccccc2C(=C2CCNCC2)c2ccsc21` [R-isomer, R-norketotifen], the Sedative effects result in series [3] is recorded as “sedative effects were attributed to the R-isomer”.
